Measured values reported in patent publication US20210198319A1, “CYTOTOXIC PEPTIDES AND CONJUGATES THEREOF” (AEBI LTD., priority 2017, published 2021).
No end group written: not given here.

Columns and labels:
[1] = system: cells; test: Toxicity to cells of library peptides; format: cell-based; conditions: cyclic peptide library, after optimization process
[2] = target: human eukaryotic elongation factor 2 (eEF2) (Homo sapiens, UniProt P13639); test: Cyclic peptide library tested for binding to eEF2; conditions: after optimization process
Excerpt: Using the technique described in WO 2007/010525, a library of cyclic peptides was generated and tested for binding to human eukaryotic elongation factor 2 (eEF2).

Cys-Ser-Ala-Arg-Trp-Gly-Pro-Ile-Met-Pro-Trp-Cys (CSARWGPIMPWC; also: cyclic, ring type not given here) [GW2]
toxicity to cells (rank among library peptides) [1]: most potent peptide
binding to eEF2 (rank among library peptides) [2]: most potent peptide
